“And” between values parts separate entries of the source, which are not always exact repeats. Equal values may be shown once. Toxic doses and inconclusive results are not listed.
Test system: P1534 leukemia ip, CD2F1 mice, survival T/C
Experiment: NCI In Vivo Anticancer Drug Screen. Data for tumor model P1534 Leukemia (intraperitoneal) in CD2F1 (CDF1) mice
Settings: endpoint: mean survival time, schedule: Q01DX010 (ip), vehicle: saline, higher = longer survival
Method: The antitumor activity of compounds was measured in mice bearing transplantable tumors. Survival or tumor size were measured and the results are expressed as the measurement made in the treated group (T) divided by the measurement made in the vehicle treated control group (C). The tumor model used in this assay is P1534 Leukemia (intraperitoneal) in CD2F1 (CDF1) mice

**Q.** With `OCCOCCN1CCN(CCCN2c3ccccc3Sc3ccc(C(F)(F)F)cc32)CC1` as the compound, how does the T/C (dose: 5.0 mg/kg/injection) read?
**A.** 100 % of control

**Q.** What about the T/C (dose: 10.0 mg/kg/injection) of the same compound?
**A.** 111 % of control

**Q.** What about the T/C (dose: 20.0 mg/kg/injection) of the same compound?
**A.** 123 % of control

**Q.** What about the T/C (dose: 40.0 mg/kg/injection) of the same compound?
**A.** 119 % of control

**Q.** `O=c1[nH]cnc2ccccc12` was tested. Which T/C (dose: 25.0 mg/kg/injection) did it give?
**A.** 107 % of control

**Q.** And the T/C (dose: 50.0 mg/kg/injection)?
**A.** 100 % of control

**Q.** And the T/C (dose: 100.0 mg/kg/injection)?
**A.** 103 % of control

**Q.** And the T/C (dose: 200.0 mg/kg/injection)?
**A.** 114 % of control

**Q.** What does the source list for `CN(C)c1ccc(C(N)=O)cn1`?
**A.** T/C (dose: 1.5 mg/kg/injection): 115 % of control; T/C (dose: 3.0 mg/kg/injection): 123 % of control

**Q.** How did the T/C (dose: 50.0 mg/kg/injection) turn out when `CCc1c(CC(=O)O)c2cc(C)ccc2n1Cc1ccc(Cl)cc1` was run?
**A.** 107 % of control

**Q.** For `C[C@H]1/C(=C/C(=O)OCCN(C)C)CC[C@H]2[C@H]1C(=O)C[C@H]1C(C)(C)[C@@H](O)CC[C@]21C`, which T/C (dose: 4.0 mg/kg/injection) is on record?
**A.** 96 % of control

**Q.** And the T/C (dose: 8.0 mg/kg/injection)?
**A.** 113 % of control

**Q.** With `C/C=C1/CN[C@H]2Cc3c([nH]c4ccccc34)[C@@H](O)C[C@@H]1C2C(=O)OC` (stereo partly drawn) as the compound, how does the T/C (dose: 7.5 mg/kg/injection) read?
**A.** 93 % of control

**Q.** What about the T/C (dose: 15.0 mg/kg/injection) of the same compound?
**A.** 93 % of control

**Q.** What about the T/C (dose: 30.0 mg/kg/injection) of the same compound?
**A.** 96 % of control

**Q.** What about the T/C (dose: 60.0 mg/kg/injection) of the same compound?
**A.** 93 % of control

**Q.** With `N#C[C@@H]1C2C=CC(CC2)[C@H]1C#N` as the compound, how does the T/C (dose: 0.25 mg/kg/injection) read?
**A.** 100 % of control

**Q.** And the T/C (dose: 0.5 mg/kg/injection)?
**A.** 103 % of control and 96 % of control

**Q.** What about the T/C (dose: 1.0 mg/kg/injection) of the same compound?
**A.** 103 % of control and 100 % of control

**Q.** What about the T/C (dose: 2.0 mg/kg/injection) of the same compound?
**A.** 103 % of control and 96 % of control

**Q.** How did the T/C (dose: 8.0 mg/kg/injection) turn out when `O=C(Nc1ccc(C2=NCCN2)cc1)c1ccc(C(=O)Nc2ccc(C3=NCCN3)cc2)cc1` was run?
**A.** 104 % of control

**Q.** And the T/C (dose: 16.0 mg/kg/injection)?
**A.** 100 % of control

**Q.** And the T/C (dose: 32.0 mg/kg/injection)?
**A.** 104 % of control and 100 % of control

**Q.** What about the T/C (dose: 64.0 mg/kg/injection) of the same compound?
**A.** 104 % of control and 100 % of control

**Q.** How did the T/C (dose: 15.6 mg/kg/injection) turn out when `Nc1c(Br)cc2c(c1Br)Cc1cc([N+](=O)[O-])ccc1-2` was run?
**A.** 115 % of control

**Q.** And the T/C (dose: 31.3 mg/kg/injection)?
**A.** 107 % of control and 110 % of control

**Q.** And the T/C (dose: 62.5 mg/kg/injection)?
**A.** 107 % of control

**Q.** And the T/C (dose: 125.0 mg/kg/injection)?
**A.** 110 % of control and 115 % of control

**Q.** And the T/C (dose: 250.0 mg/kg/injection)?
**A.** 107 % of control

**Q.** `CS(=O)(=O)OCC(O)C(O)COS(C)(=O)=O` (stereo not drawn) was tested. Which T/C (dose: 20.0 mg/kg/injection) did it give?
**A.** 107 % of control

**Q.** What about the T/C (dose: 40.0 mg/kg/injection) of the same compound?
**A.** 107 % of control

**Q.** And the T/C (dose: 80.0 mg/kg/injection)?
**A.** 107 % of control

**Q.** What about the T/C (dose: 100.0 mg/kg/injection) of the same compound?
**A.** 103 % of control

**Q.** And the T/C (dose: 160.0 mg/kg/injection)?
**A.** 117 % of control

**Q.** And the T/C (dose: 200.0 mg/kg/injection)?
**A.** 103 % of control

**Q.** What about the T/C (dose: 400.0 mg/kg/injection) of the same compound?
**A.** 107 % of control

**Q.** What about the T/C (dose: 800.0 mg/kg/injection) of the same compound?
**A.** 89 % of control

**Q.** `O=C(Nc1ccc(C2=NCCCN2)cc1)c1ccc(C(=O)Nc2ccc(C3=NCCCN3)cc2)cc1` was tested. Which T/C (dose: 1.0 mg/kg/injection) did it give?
**A.** 109 % of control

**Q.** And the T/C (dose: 2.0 mg/kg/injection)?
**A.** 113 % of control and 118 % of control

**Q.** And the T/C (dose: 8.0 mg/kg/injection)?
**A.** 150 % of control

**Q.** What does the source list for `Cc1cc2nc3c(=O)[nH]c(=O)nc-3n(CC(O)C(O)C(O)C(O)CO)c2cc1C` (stereo not drawn)?
**A.** T/C (dose: 25.0 mg/kg/injection): 111 % of control; T/C (dose: 50.0 mg/kg/injection): 107 % of control and 100 % of control; T/C (dose: 100.0 mg/kg/injection): 107 % of control and 111 % of control; T/C (dose: 200.0 mg/kg/injection): 111 % of control

**Q.** Which results are given for `C/C=C1\CN2C3C[C@H]1C(C(=O)OC)[C@H]2Cc1c3[nH]c2ccccc12` (stereo partly drawn)?
**A.** T/C (dose: 7.5 mg/kg/injection): 100 % of control; T/C (dose: 15.0 mg/kg/injection): 93 % of control; T/C (dose: 30.0 mg/kg/injection): 93 % of control
